Measured values published in patent US20220031825A1, “IMM[…] AND VACCINE COMPOSITION INCLUDING STING AGONIST” (priority 2018, published 2022).

Assays:
[1] = test system: spleen and lung cells; test: Type and number of memory T cells in spleen and lung (flow cytometry); format: in vivo, mouse; settings: both spleen and lung cells of immunized mice; compared with MPL as adjuvant; FIG. 1D
Description: In general, when infected with Mycobacterium tuberculosis, Mycobacterium tuberculosis antigen-specific T cells replicate and differentiate to become effector T cells. When the immune response disappears, most of these effector T cells die, and some form long-lasting memory T cells. It is known that the memory T cells thus formed play a critical role in the formation of a rapid acquired defense immunity and maintenance of the memorization of T cells. […] For the experiment, the spleen and lung cells of the mouse obtained in the same manner as in Example 1.2 were washed twice with PBS and then centrifuged. The centrifuged cells were treated with anti-CD3-BV421 (BD Bioscience), anti-CD4-PerCP-Cy5.5 (BD Bioscience), anti-CD8-APC-Cy7 (BD Bioscience), anti-CD44-PE (Ebioscience), anti-CD62L-FITC (Ebioscience), anti-CD127-APC (Ebioscience), etc. Then, they were reacted at 4° C. for 30 minutes. After the reaction was completed, cells were washed several times with PBS to remove unbound antibody, and then effector T cells (Teff; CD3^+CD4^+CD62L^−CD44+CD127^−), effector/memory T cells (Tem; CD3^+CD4^+CD62L^−CD44^+CD127^+), central memory T cells (Tcm; CD3^+CD4^+CD62L^+CD44^+CD127^+), and naive T cells (Naive; CD3^+CD4^+CD62L^+CD44^−CD127^+) were analyzed by using flow cytometer (FACS verse, BD).

[2] = test system: spleen and lung cells; test: Antigen-specific multifunctional T cells after ESAT-6 stimulation (flow cytometry); settings: mouse, in vivo

Row | Compound | effector/memory T of CD4+/CD8+ [1] | T cells secreting all three types of cytokines IFN-γ, TNF-α and IL-2 [2]
1 | Nc1nc2c(ncn2[C@@H]2O[C@@H]3COP(=O)(O)O[C@H]4[C@@H](O)[C@H](n5cnc6c(=O)[nH]c(N)nc65)O[C@@H]4COP(=O)(O)O[C@H]3[C@H]2O)c(=O)[nH]1 [c-di-GMP, cyclic diguanylate] | significant increase | increased
2 | monophosphoryl lipid A [MPL] |  | increased
